We go through 6 compounds from ChEMBL document CHEMBL4665796 (2020).

Active and inactive are the calls of the source. No cut-off for these calls is given here.

Series [1] has as its target Sodium channel protein type 5 subunit alpha (Homo sapiens, UniProt Q14524). Briefly: Inhibition of NaV1.5 (unknown origin) at 5 uM.
For a further series, the system named is Bacillus subtilis. Briefly: Antimicrobial activity against Bacillus subtilis at 1.5 ug after 18 hrs by paper disk-agar diffusion assay. Format: functional, organism-based. To be noted: dose 1.5 µg.
A further series has as its system Candida. Briefly: Antimicrobial activity against Candida sp. at 1.5 ug after 18 hrs by paper disk-agar diffusion assay. It counts as functional, organism-based. To be noted: dose 1.5 µg. Background: In agar diffusion tests the substance spreads into inoculated agar from a disc or well.
Another series concerns Pseudomonas putida. As to the kind of experiment: Antimicrobial activity against Pseudomonas putida at 1.5 ug after 18 hrs by paper disk-agar diffusion assay. Format: functional, organism-based. To be noted: dose 1.5 µg.

Chain of Sodium channel protein type 5 subunit alpha (Q14524 whole entry, the tested form may be a part): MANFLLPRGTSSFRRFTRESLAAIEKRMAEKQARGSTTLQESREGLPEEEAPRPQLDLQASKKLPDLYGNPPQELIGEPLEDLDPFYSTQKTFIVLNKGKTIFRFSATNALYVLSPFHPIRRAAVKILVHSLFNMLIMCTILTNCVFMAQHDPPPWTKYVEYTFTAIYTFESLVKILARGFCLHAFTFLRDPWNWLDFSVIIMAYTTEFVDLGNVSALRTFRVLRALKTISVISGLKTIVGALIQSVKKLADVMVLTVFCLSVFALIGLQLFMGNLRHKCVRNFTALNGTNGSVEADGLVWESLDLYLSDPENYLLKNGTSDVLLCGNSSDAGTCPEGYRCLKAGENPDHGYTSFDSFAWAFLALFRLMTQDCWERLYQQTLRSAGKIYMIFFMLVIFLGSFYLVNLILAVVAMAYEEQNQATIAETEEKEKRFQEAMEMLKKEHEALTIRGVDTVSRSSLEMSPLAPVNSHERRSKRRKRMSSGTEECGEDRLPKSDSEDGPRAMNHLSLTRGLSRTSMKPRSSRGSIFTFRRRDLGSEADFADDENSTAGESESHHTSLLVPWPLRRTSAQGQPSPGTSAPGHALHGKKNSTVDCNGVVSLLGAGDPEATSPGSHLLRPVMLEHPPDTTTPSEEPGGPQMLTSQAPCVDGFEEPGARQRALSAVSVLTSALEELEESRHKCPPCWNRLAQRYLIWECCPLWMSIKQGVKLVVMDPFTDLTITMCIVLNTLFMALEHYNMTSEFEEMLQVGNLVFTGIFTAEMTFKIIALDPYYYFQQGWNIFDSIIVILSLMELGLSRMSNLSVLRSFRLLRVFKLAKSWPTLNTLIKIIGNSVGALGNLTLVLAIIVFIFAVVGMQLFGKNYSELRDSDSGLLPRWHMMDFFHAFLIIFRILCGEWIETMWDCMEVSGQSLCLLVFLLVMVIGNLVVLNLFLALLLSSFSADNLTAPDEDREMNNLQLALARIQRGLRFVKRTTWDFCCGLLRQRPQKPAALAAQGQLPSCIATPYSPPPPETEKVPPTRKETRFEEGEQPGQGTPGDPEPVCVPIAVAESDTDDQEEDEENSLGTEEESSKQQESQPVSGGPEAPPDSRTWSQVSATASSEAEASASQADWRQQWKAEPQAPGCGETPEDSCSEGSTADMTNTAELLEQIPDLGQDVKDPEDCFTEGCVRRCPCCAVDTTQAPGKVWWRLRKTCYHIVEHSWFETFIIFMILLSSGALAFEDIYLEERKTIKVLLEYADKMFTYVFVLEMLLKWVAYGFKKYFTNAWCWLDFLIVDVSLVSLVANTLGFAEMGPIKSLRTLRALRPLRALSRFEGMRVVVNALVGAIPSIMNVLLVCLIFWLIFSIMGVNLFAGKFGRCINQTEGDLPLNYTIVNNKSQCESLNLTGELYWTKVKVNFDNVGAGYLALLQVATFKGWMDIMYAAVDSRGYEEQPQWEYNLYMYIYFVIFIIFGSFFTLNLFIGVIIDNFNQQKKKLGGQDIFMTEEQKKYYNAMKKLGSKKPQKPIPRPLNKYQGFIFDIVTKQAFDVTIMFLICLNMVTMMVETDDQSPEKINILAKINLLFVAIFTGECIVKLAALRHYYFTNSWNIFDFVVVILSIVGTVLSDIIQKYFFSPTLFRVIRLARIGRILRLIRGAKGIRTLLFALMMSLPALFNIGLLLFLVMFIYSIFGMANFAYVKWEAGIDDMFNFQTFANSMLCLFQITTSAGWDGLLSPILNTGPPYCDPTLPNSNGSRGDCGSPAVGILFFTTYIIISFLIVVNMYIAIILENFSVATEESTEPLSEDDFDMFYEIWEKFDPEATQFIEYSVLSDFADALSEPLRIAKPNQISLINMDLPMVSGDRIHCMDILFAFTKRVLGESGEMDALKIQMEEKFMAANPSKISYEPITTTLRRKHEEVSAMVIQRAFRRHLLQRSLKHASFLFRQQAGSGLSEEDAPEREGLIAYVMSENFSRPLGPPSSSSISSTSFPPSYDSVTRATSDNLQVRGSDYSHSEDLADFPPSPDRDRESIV

For the compound `C[C@]1(O)C[C@@H]2CNC(=N)N[C@]2(C)C(=O)C[C@@H]1O`, the “inhibition (INH)” value in series [1] is given as “Not Active”.
For the compound `C[C@]12NC(=N)NC=C1C[C@]1(C)O[C@@]2(O)CC1=O`, the “inhibition (INH)” value in series [1] is given as “Not Active”. Also, the result in the series with Bacillus subtilis, with Candida and in the series with Pseudomonas putida was inactive.
For the compound `C[C@]12NC(=N)NC[C@H]1C[C@]1(C)O[C@@]2(O)CC1=O`, in series [1], the “inhibition (INH)” value is on record as “Not Active”.
On to `C[C@]12NC(=N)NC=C1C[C@]1(C)O[C@@]2(O)C[C@@H]1O`, for which the “inhibition (INH)” value in series [1] is recorded as “Not Active”. The result with Bacillus subtilis, with Candida and in the series on Pseudomonas putida was inactive.
In the case of `C[C@@]12NC(=N)N[C@H]3O[C@H]4C[C@]1(O)O[C@@]4(C)C[C@H]32`, the “inhibition (INH)” value in series [1] is given as “Not Active”.
Same read-out and setting: next, `C[C@]12NC(=N)NC[C@H]1C[C@]1(C)O[C@@]2(O)C[C@@H]1O`: “Not Active”.
